Assay [1] has as its target T1, SIK1 (Homo sapiens, UniProt P57059).
T1 construct: purchased Carna Biosciences 02-131
Nature of the assay: 33P radioactive kinase assay, SIK1. The class given is biochemical. The method, then:
(§1) The principle of the ^33P radioactive kinase assay consists in measuring the incorporated ^33P into the substrate AMARA peptide when phosphorylated by SIK1, SIK2 or SIK3 using [^33P]-g-ATP, which correlates with kinase activity.
(§2) The test compounds are prepared as a serial dilution of 10 point dose responses with 1/5 dilution steps in 100% DMSO starting from 2 mM highest concentration, diluted 1/20 in water and 5 μL is transferred to the assay plates (Greiner, Cat #651201).
(§3) 1% DMSO and 10 μM staurosporine final concentrations are used as negative and positive controls.
(§4) 11 μL of enzyme-substrate mixture is added on the assay plates. The reactions are started by adding 9 μL ATP mixture, consisting of non-labeled and ^33P-labeled ATP, on the assay plates.
(§5) The reactions are stopped by adding 25 μL phosphoric acid (150 mM) to the reactions.
(§6) The completely terminated kinase reactions are transferred using a harvester on pre-wetted UniFilter-96 plates (UniFilter-96 GF/B, PerkinElmer Inc., Cat #6005177).
(§7) After harvesting the kinase reactions, the filter plates are washed 6 times with phosphoric acid (75 mM). The back of the UniFilter-96 plates are sealed and 40 μL MicroScint-20 (PerkinElmer Inc., Cat #6013621) is added to each well. The top of the plates are sealed with TopSeal-A. Read-out is performed with a TopCount instrument (PerkinElmer Inc.).
(§8) Raw data are generated following the read-out performed on the TopCount, plotted to generate dose response curves to calculate percentage inhibition (PIN) and average IC50 for each SIK homologue which are reported in the table below.

Assay [2] has as its target T2, SIK3 (Homo sapiens, UniProt Q9Y2K2).
T2 construct: purchased SignalChem S12-11G-100
Nature of the assay: 33P radioactive kinase assay, SIK3. Type of assay: biochemical. The settings on record: 33P radioactive assay; AMARA 7 μM; 15 μM ATP; 80 min; average IC50. The method, then:
as §1, §2, §3, §4, §5, §6, §7, §8

In assay [3] the target is T3, SIK2 (Homo sapiens, UniProt Q9H0K1).
T3 construct: purchased ThermoFisher Scientific PV4792
T3 sequence (Q9H0K1 whole entry): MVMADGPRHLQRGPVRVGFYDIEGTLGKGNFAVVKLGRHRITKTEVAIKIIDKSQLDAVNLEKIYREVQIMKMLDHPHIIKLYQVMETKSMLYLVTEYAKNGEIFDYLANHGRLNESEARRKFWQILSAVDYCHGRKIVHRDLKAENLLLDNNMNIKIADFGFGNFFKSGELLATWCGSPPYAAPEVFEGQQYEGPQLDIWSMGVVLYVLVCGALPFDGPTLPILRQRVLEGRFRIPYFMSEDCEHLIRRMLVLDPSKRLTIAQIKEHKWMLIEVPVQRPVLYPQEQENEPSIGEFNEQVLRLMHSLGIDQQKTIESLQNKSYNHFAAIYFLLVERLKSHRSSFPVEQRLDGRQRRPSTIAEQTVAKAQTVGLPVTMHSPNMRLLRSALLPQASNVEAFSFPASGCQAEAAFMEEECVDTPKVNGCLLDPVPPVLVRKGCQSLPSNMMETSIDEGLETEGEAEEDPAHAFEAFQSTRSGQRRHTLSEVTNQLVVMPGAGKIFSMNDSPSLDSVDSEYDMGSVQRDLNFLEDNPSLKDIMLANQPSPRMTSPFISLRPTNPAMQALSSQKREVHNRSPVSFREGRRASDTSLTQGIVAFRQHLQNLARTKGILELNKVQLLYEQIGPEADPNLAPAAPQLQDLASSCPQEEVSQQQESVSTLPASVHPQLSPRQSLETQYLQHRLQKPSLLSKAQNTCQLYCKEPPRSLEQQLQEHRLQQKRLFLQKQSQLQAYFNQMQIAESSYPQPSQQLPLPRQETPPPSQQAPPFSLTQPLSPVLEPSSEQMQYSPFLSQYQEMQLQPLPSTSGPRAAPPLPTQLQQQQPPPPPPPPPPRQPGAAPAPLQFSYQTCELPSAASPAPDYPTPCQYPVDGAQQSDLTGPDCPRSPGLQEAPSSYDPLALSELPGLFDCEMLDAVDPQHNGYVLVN
Nature of the assay: 33P radioactive kinase assay, SIK2. Also: AMARA 5 µM, 10 µM ATP. The class given is biochemical. The method, then:
as §1, §2, §3, §4, §5, §6, §7, §8

For assay [4], the target named is T2, SIK3. Nature of the assay: ADP-Glo kinase assay, SIK3. The class given is biochemical. In short, it runs like this:
(§9)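 Steps: add enzyme–substrate mixture; start with diluted ATP; incubate RT 120 min; add ADP-Glo Reagent to terminate and remove unconsumed ATP, 40 min; add detection reagent, 30 min; read luminescence. DMSO at 1% and staurosporine at 10 μM (final) define assay windows.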

Assay [5] concerns LPS-induced TNFα in monocytes. Nature of the assay: Monocytes assay: LPS-triggered TNFα (ELISA). Type of assay: cell-based, human. The settings on record: Homo sapiens, Monocyte, LPS-triggered TNFα inhibition. In short, it runs like this:
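TNFα secretion was triggered with 200 ng/mL LPS for 4 h in human blood CD14+ monocytes after 1 h compound pretreatment at 37 °C, with 0.2% final DMSO. Supernatants were analysed by streptavidin-HRP/luminol ELISA, and percentage inhibition at each concentration was derived relative to control wells.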

Assay [6] concerns the target T3, SIK2. Nature of the assay: ADP-Glo kinase assay, SIK2. The class given is biochemical. In short, it runs like this: as §9
A general note: ADP-Glo turns the ADP formed in a reaction into a luminescent signal.

Assay [7] has as its system LPS triggered IL-10 secretion in monocytes. Nature of the assay: Monocytes assay: LPS-triggered IL-10 (ELISA). The class given is cell-based, human. The settings on record: Homo sapiens, Monocyte, LPS-triggered IL-10 induction, median maximal fold change vs LPS only, read-out: IL-10 FCmax median. The method, then:
This assay evaluates illustrative compounds of the invention for their inhibition of LPS-induced TNFα and LPS triggered IL-10 secretion in monocytes.
PBMCs are isolated from human blood samples (buffycoats). The buffy coat is aseptically transferred into a 50 mL Falcon tube, and diluted 1/2 in PBS. Falcon tubes are filled with 20 mL Lymphoprep™, on top of which 25 mL of the buffy coat is carefully added, tubes are centrifuged for 35 min at 400 g in temperature controlled centrifuge, without brake, at 25° C. PBMCs are aspirated from the white interface layer between sample and Lymphoprep™. PBMCs are washed five times in PBS.
PBMCs are centrifuged at 300×g for 10 min and resuspended at a density of 1.0*10^7 cells/80 μL Miltenyi buffer (PBS, pH 7.4, 1% FBS, 2 mM EDTA).
Starting from this point of the protocol all steps are performed on ice. 20 μL of CD14+ micro-beads are added per 1.0*10^7 cells, the tube is mixed and incubated for 15 min in the fridge at 4° C. Cell suspension volume is adjusted to total volume of 100 mL using Miltenyi buffer, mixed gently and subsequently centrifuged for 10 min at 300×g. Supernatant is discarded and cell pellet is resuspended in 12 mL of Miltenyi buffer.
Four LS columns are placed in the MACS Separator (magnet) from Miltenyi Biotec, and are prewet by rinsing with 3 mL of MACS buffer per column. Three mL of cell suspension is added onto the column (max 1*10^8 of labelled cells/column), and columns are subsequently washed 3 times with 3 mL of Miltenyi buffer.
The columns are removed from the magnets, and 5 mL of Miltenyi buffer are added to the column to flush out the CD14+ fraction by pushing the plunger into the column. The flushed fractions are collected in a fresh 50 mL Falcon and volume is adjusted to 30 mL using Miltenyi buffer, cells are centrifuged for 10 min at 300×g. The obtained cell pellet is resuspended in 10 mL RPMI w/o FBS, and cell density is determined using a hematologic analyser (Sysmex XS-500i).
A compound dilution plate is made in 100% DMSO by 3-fold dilution of 10 mM stock solution. An intermediate dilution plate (10× final concentration) is made by diluting the compound dilution plate 50-fold in RPMI medium.
10 μL of the 10× final concentration compound is added to the cells and incubated for 1 h at 37° C. before addition of trigger. No trigger conditions/trigger conditions are spiked with equal final DMSO concentrations of 0.2% DMSO. 10 μL of 10×LPS (final conc. 200 ng/mL) solution are added to all wells except for the ‘no trigger wells’ where 10 μL medium is added. Supernatant is collected after 4 h of LPS triggering.
A Lumitrac 600 Greiner 384-well plate is coated with 40 μL of capture antibody (final concentration of 1 μg/mL in 1×PBS) and stored overnight at 4° C. The next day the plate is washed three times with PBST (PBS+0.05% Tween20) and once with PBS followed by the addition of 100 μL of blocking buffer (1% BSA-5% Sucrose) and plates are sealed and incubated for at least 4 h at RT. After washing the plate once with PBST and once with PBS, 40 μL of standard or sample are added (IL-10 standard curve is prepared using a 1/2 serial dilution starting from 2000 pg/mL; dilutions are made in dilution buffer (PBS+1% BSA)). […] Plates are washed twice with PBST, and once with PBS, whereafter 35 μL of Strep-HRP conjugate (0.5 μg/mL final concentration diluted in dilution buffer) is added. Plates are incubated in the dark, at RT for at least 45 min but no longer than 1 h. Plates are washed twice with PBST, and once with PBS. Thereafter, 50 μL of luminol substrate is added to each well (prepared according to manufacturer's instructions), and incubated for 5 min at RT protected from light.
To quantify these increases, fold changes (FC) compared to ‘LPS only’ are calculated for each concentration tested and the maximal FC is calculated (IL-10 FCmax): […]
In general terms: An ELISA detects its analyte on a solid surface through an enzyme-linked reagent.

The target in assay [8] is T1, SIK1. Nature of the assay: ADP-Glo kinase assay, SIK1. Type of assay: biochemical. The method, boiled down:
as §9

Setting [9] is: ADP-Glo, AMARA 45 μM, 5 μM ATP, 120 min, average IC50.

A value given as a limit tells only on which side of the number the result lay.

As a reminder, the IC50 is the concentration that inhibits the measured activity by half. As a reminder, the EC50 is the concentration needed to bring the measured effect to its halfway point. High values mean weaker potency, low ones greater potency.

T2 sequence (Q9Y2K2 59-365 limits assumed): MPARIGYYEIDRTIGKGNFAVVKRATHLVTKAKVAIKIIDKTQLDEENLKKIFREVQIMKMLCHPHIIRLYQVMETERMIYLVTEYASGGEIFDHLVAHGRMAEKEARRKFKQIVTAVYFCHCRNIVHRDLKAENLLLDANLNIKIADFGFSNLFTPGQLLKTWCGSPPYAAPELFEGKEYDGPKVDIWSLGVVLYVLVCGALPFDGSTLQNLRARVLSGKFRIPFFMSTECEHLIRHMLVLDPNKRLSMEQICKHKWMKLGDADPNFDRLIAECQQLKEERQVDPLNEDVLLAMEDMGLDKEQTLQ
T1 sequence (P57059 whole entry): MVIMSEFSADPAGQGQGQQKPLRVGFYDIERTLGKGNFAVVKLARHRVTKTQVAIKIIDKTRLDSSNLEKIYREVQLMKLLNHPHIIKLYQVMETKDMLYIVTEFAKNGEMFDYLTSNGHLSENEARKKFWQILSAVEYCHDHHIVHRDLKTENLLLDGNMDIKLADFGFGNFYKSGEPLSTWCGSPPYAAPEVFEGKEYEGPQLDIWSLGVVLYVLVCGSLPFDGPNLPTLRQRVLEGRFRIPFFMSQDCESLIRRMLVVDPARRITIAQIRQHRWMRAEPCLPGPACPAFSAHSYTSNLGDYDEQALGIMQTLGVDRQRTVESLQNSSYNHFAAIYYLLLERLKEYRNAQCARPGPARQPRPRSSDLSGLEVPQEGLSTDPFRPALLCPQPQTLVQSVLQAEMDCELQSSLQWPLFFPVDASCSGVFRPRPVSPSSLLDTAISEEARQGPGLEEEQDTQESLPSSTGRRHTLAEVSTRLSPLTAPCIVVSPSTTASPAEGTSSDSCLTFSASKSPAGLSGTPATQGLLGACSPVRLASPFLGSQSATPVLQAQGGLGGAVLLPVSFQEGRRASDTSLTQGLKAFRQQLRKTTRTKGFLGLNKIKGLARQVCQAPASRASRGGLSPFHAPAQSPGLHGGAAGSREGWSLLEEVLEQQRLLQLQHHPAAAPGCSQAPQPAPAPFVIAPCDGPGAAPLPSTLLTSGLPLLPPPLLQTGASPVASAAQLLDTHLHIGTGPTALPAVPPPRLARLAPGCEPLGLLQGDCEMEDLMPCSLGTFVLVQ

For the compound `COc1cc(-n2cnc3cc(C4(C#N)CCC4)ccc32)cc(OC)c1C(=O)NCC(F)(F)F` [Cpd 13, 4-[5-(1-cyanocyclobutyl)benzimidazol-1-yl]-2,6-dimethoxy-N-(2,2,2-trifluoroethyl)benzamide], the half-maximal inhibitory concentration (IC50) in assay [1], in assay [2] and in assay [3] was greater than 500 nM in each case.
Turning to `COc1cc(-n2cnc3cc(C4CCCNC4)ccc32)cc(OC)c1C(=O)NCC(F)(F)F` (stereo not drawn) [Cpd 8, 2,6-dimethoxy-4-[5-(3-piperidyl)benzimidazol-1-yl]-N-(2,2,2-trifluoroethyl)benzamide], the IC50 in assay [1] was greater than 500 nM; in assay [2] it was 100 to 500 nM; in assay [3], greater than 500 nM.
As for `COc1cc(-n2cnc3cc(C4CCN(CC#N)CC4)ccc32)cc(OC)c1C(=O)NCC(F)(F)F` [Cpd 4, 4-[5-[1-(cyanomethyl)-4-piperidyl]benzimidazol-1-yl]-2,6-dimethoxy-N-(2,2,2-trifluoroethyl)benzamide], the IC50 was greater than 500 nM in assay [1], 100 to 500 nM in assay [2] and greater than 500 nM in assay [3].
Consider `COc1cc(-n2cnc3cc(C4CCN(C(=O)OC(C)(C)C)CC4)ccc32)cc(OC)c1C(=O)NCC(F)(F)F` [Cpd 2, tert-butyl 4-[1-[3,5-dimethoxy-4-(2,2,2-trifluoroethylcarbamoyl)phenyl]benzimidazol-5-yl]piperidine-1-carboxylate], for which the IC50 in assay [1] was greater than 500 nM; in assay [2], 100 to 500 nM; in assay [3], 100 to 500 nM.
With `COc1cc(-n2cnc3cc(C4CCNCC4)ccc32)cc(OC)c1C(=O)NCC(F)(F)F` [Cpd 3, 2,6-dimethoxy-4-[5-(4-piperidyl)benzimidazol-1-yl]-N-(2,2,2-trifluoroethyl)benzamide], the IC50 in assay [1] is greater than 500 nM; in assay [2], 100 to 500 nM; in assay [3], 100 to 500 nM.
In the case of `COc1cc(-n2cnc3cc(C4CCCN(C(=O)OC(C)(C)C)C4)ccc32)cc(OC)c1C(=O)NCC(F)(F)F` (stereo not drawn) [Cpd 7, tert-butyl 3-[1-[3,5-dimethoxy-4-(2,2,2-trifluoroethylcarbamoyl)phenyl]benzimidazol-5-yl]piperidine-1-carboxylate], the IC50 in assay [1], in assay [2] and in assay [3] was greater than 500 nM each time.
On to `COc1cc(-c2cnc3cc(C(C)(C)F)ccn23)cc(OC(F)F)c1C(=O)NC1CC1` [Cpd 133, N-cyclopropyl-2-(difluoromethoxy)-4-[7-(1-fluoro-1-methyl-ethyl)imidazo[1,2-a]pyridin-3-yl]-6-methoxy-benzamide], for which the IC50 in assay [4] fell in the range of 10 to 100 nM; in assay [6], 100 to 500 nM; in assay [8] it was 100 to 500 nM. The compound also returned an EC50 in assay [5] of 100 to 1000 nM. In addition, the maximal fold induction in assay [7] fell in the range of 1.5 to 4.5.
In the case of `COCC(C)(O)c1ccn2c(-c3cc(OC)c(C(=O)NC4CC4)c(OC(F)F)c3)cnc2c1` (stereo not drawn) [Cpd 182, N-cyclopropyl-2-(difluoromethoxy)-4-[7-(1-hydroxy-2-methoxy-1-methyl-ethyl)imidazo[1,2-a]pyridin-3-yl]-6-methoxy-benzamide], the figures for the 50% inhibitory concentration (IC50) in assay [4], in assay [6] and in assay [8] were 10 to 100 nM, greater than 500 nM and greater than 500 nM, respectively. For the same compound, the EC50 in assay [5] lay in the range of 100 to 1000 nM. Further, the maximal fold induction in assay [7] was less than 1.5.
`COc1cc(-c2cnc3cc(C(C)(O)CN4CC(F)(F)C4)ccn23)cc(OC(F)F)c1C(=O)NC1CC1` (stereo not drawn) [Cpd 191, N-cyclopropyl-4-[7-[2-(3,3-difluoroazetidin-1-yl)-1-hydroxy-1-methyl-ethyl]imidazo[1,2-a]pyridin-3-yl]-2-(difluoromethoxy)-6-methoxy-benzamide]: the values for the IC50 in assay [4], in assay [6] and in assay [8] were 10 to 100 nM, greater than 500 nM and greater than 500 nM, respectively. The compound also showed an EC50 in assay [5] of 1000 to 5000 nM. Also, the maximal fold induction in assay [7] is less than 1.5.
Regarding `COc1cn2c(-c3cc(OC)c(C(=O)NC4CC4)c(OC(F)F)c3)cnc2cc1C(C)(C)C#N` [Cpd 200, 4-[7-(1-cyano-1-methyl-ethyl)-6-methoxy-imidazo[1,2-a]pyridin-3-yl]-N-cyclopropyl-2-(difluoromethoxy)-6-methoxy-benzamide], the IC50 in assay [4] is 10 to 100 nM; in assay [6], 100 to 500 nM; in assay [8] it was greater than 500 nM. The same compound showed an EC50 in assay [5] of 100 to 1000 nM. For the same compound, the maximal fold induction in assay [7] is less than 1.5.
The corresponding values for `[2H]C([2H])([2H])C(C#N)(c1ccn2c(-c3cc(OC)c(C(=O)NC4CC4)c(OC(F)F)c3)cnc2c1)C([2H])([2H])[2H]` [Cpd 230, 4-[7-[1-cyano-2,2,2-trideuterio-1-(trideuteriomethyl)ethyl]imidazo[1,2-a]pyridin-3-yl]-N-cyclopropyl-2-(difluoromethoxy)-6-methoxy-benzamide] are 0.01 to 10 nM, 100 to 500 nM, greater than 500 nM, 100 to 1000 nM and less than 1.5.
As to `COc1cc(-c2cnn3cc(C4COCCO4)ccc23)cc(OC(F)F)c1C(=O)N[C@@H]1C[C@@H]1F` (stereo partly drawn) [Cpd 240, 2-(difluoromethoxy)-4-[6-(1,4-dioxan-2-yl)pyrazolo[1,5-a]pyridin-3-yl]-N-[(1R,2S)-2-fluorocyclopropyl]-6-methoxy-benzamide], the IC50 in assay [4] (setting [9]) was 0.01 to 10 nM; in assay [6] (setting [9]) it was 10 to 100 nM; in assay [8] (setting [9]), 100 to 500 nM. This compound also came in with a concentration for a half-maximal effect (EC50) in assay [5] of 100 to 1000 nM. Further, in assay [7], the maximal fold induction is 1.5 to 4.5.

Values taken from patent US12391679B2, “Benzamide-substituted bicyclic imidazo- and pyrazolo-fused -pyridine, -pyrimide, and -pyridazine compounds for treatment of inflammatory diseases” (ONCO3R Therapeutics BV, priority 2019, dated 2025).
